In patent US20050197366A1, “Antimicrobial composition containing N-(n-butyl)-1,2-benzisothiazolin-3-one” (priority 2004, published 2005):
Values joined by “and” are separate entries in the source; they are usually repeats but may differ in a detail not shown here. Identical values can stand only once. Like-named read-outs stand apart in the source and are kept apart here. Values belong to the compound of their own block, whether it stands above or below them.

Tests used:
Format in all cases: cell-based
[1] = system: Gliocladium viridie (Tricoderma viridie)(isolate); assay: Microtiter plate synergy test (MIC, Kull synergy index), fungi, Potato Dextrose Broth; details: for MIC: read-out: Alone ppm (MIC of compound acting alone); for Alone ppm (MIC of compound acting alone): G. viridie, ppm active ingredient
Source text: (§1) One measure of synergism is the industrially accepted method described by Kull, F. C.; Eisman, P. C.; Sylwestrowicz, H. D. and Mayer, R. L., in Applied Microbiology 9:538-541 (1961), using the ratio determined by the formula: Qa/QA+Qb/QB=Synergy Index (“SI”) wherein: • QA=concentration of compound A (first component) in ppm, acting alone, which produced an end point (MIC of Compound A). • Qa=concentration of compound A in ppm, in the mixture, which produced an end point. • QB=concentration of compound B (second component) in ppm, acting alone, which produced an end point (MIC of Compound B). • Qb=concentration of compound B in ppm, in the mixture, which produced an end point.
(§2) When the sum of Qa/QA and Qb/QB is greater than one, antagonism is indicated. […] The lower the SI, the greater the synergy shown by that particular mixture. The minimum inhibitory concentration (MIC) of an antimicrobial compound is the lowest concentration tested under a specific set of conditions that prevents the growth of added microorganisms.
(§3) Synergy tests were conducted using standard microtiter plate assays (12 columns, 1-12×8 rows, A-H) with media designed for optimal growth of the test microorganism. Full-strength nutrient medium, Trypticase Soy Broth, TSB, for bacteria, or Potato Dextrose Broth, PDB, for fungi, was used for testing. Growth medium (160 μL) was dispensed into columns 2-6 and 8-12 of the plate. A total of 40 plates were made with each growth medium. Stock solutions of N-(n-butyl)-1,2-benzisothiazolin-3-one were made from DENSIL DG 20 (20% active ingredient (AI), n-BBIT, in propylene glycol, obtained from Avecia Inc.) at the following concentrations based on total product weight: 5000 ppm (0.2 g DENSIL DG 20 in 40 g growth medium), 4000 ppm, 3500 ppm, 3000 ppm, 2500 ppm, 2000 ppm, 1500 ppm, 1000 ppm and 900 ppm. Isothiazolone stock solutions were made as follows. KATHON LX (1.97% active, 3:1 CMI/MI mixture): active ingredient concentrations at 144 ppm, 36 ppm, 10 ppm, 5 ppm and 1 ppm. ROZONE 2000 (20% active, DCOIT): active ingredient concentrations at 144 ppm, 36 ppm, 10 ppm, 5 ppm and 1 ppm. ROCIMA 550 (9.5% active, MI): active ingredient concentrations at 4800 ppm, 2400 ppm, 900 ppm, 360 ppm and 180 ppm. DENSIL DG 20 stock solution was dispensed in each well of columns 1 and 7 of a microtiter plate, as described below:
(§4) 5000 ppm of stock solution was tested against Ps. aeruginosa in 1A, 7A. The 900 ppm stock was not tested against this organism. A 40 μL aliquot was transferred from each well in column 1 to column 2 and serially diluted to column 5; the aliquots from column 5 was discarded. Column 6 was the control. The same procedure was repeated from column 7 to column 11, and the aliquots from column 11 discarded. At the end of this procedure, each well should contain 160 μL of solution.
(§5) The isothiazolone stock solutions were added to various columns so that each well contained the desired concentration of the isothiazolone and the DENSIL DG20. The DENSIL DG20 alone as well as the isothiazolone alone were included as controls. An example of the combination of 11 ppm KATHON LX 1.5% (on an active ingredient basis) with DENSIL DG20 is shown below:
(§6) DENSIL DG20 alone (columns 1-5); untreated control (column 6); combination evaluations (columns 7-11); KATHON LX 1.5% control (column 12). Inoculum (10 μL) was dispensed into each well from column 1-12. The plates were incubated (bacterial plates at 48 hrs., 30° C.; fungal plates at 7 days, 25° C.). The MIC of each biocide was determined from the plates, and then SI was determined.
(§7) The following Tables summarize data for combinations of n-BBIT with other isothiazolones (ITA), along with their synergy index (SI) and the ratio of n-BBIT:ITA. All amounts of n-BBIT and ITA are reported as ppm of active ingredient. Results for testing against various organisms are grouped with results against fungi (F) reported together, and then results against bacteria (B). […]

[2] = system: Candida albicans (ATCC#10231); assay: as above
Source text: as §1, §2, §3, §4, §5, §6, §7

[3] = system: Aspergillus niger (ATCC#16404); assay: as above; details: for Alone ppm (MIC of compound acting alone): A. niger, ppm active ingredient
Source text: as §1, §2, §3, §4, §5
(§8) DENSIL DG20 alone (columns 1-5); untreated control (column 6); combination evaluations (columns 7-11); KATHON LX 1.5% control (column 12). Inoculum (10 μL) was dispensed into each well from column 1-12. […] The MIC of each biocide was determined from the plates, and then SI was determined.
(§9) The following Tables summarize data for combinations of n-BBIT with other isothiazolones (ITA), along with their synergy index (SI) and the ratio of n-BBIT:ITA. All amounts of n-BBIT and ITA are reported as ppm of active ingredient. Results for testing against various organisms are grouped with results against fungi (F) reported together, and then results against bacteria (B).
(§10) Typical contact time for bacteria is 24-48 hours and 3-7 days for fungi. […]

[4] = system: Fusarium moniliforme (ATCC#58929); assay: as above; details: for MIC: Fusarium verticillioides, read-out: Alone ppm (MIC of compound acting alone)
Source text: as §1, §2, §3, §4, §5, §8, §9, §10

[5] = system: Klebsiella pneumoniae (ATCC#13583); assay: Microtiter plate synergy test (MIC, Kull synergy index), bacteria, Trypticase Soy Broth; details: for MIC: Klebsiella pneumoniae, read-out: Alone ppm (MIC of compound acting alone)
Source text: as §1, §2, §3, §4, §5, §8, §9, §10

[6] = system: Pseudomonas aeruginosa (ATCC#15442); assay: as above; details: for MIC: Pseudomonas aeruginosa, read-out: Alone ppm (MIC of compound acting alone); for Alone ppm (MIC of compound acting alone): Ps. aeruginosa, ppm active ingredient
Source text: as §1, §2, §3, §4, §5, §8, §9, §10

[7] = system: Escherichia coli (ATCC#8739); assay: as above; details: E. coli, ppm active ingredient
Source text: as §1, §2, §3
(§11) 5000 ppm of stock solution was tested against Ps. aeruginosa in 1A, 7A. The 900 ppm stock was not tested against this organism. […]
(§12) DENSIL DG20 alone (columns 1-5); untreated control (column 6); combination evaluations (columns 7-11); KATHON LX 1.5% control (column 12). […] The MIC of each biocide was determined from the plates, and then SI was determined. […]

[8] = system: Proteus mirabilis (ATCC#unknown); assay: as above; details: P. mirabilis, contact time 48 hr, ppm active ingredient
Source text: as §1, §2, §3, §11, §12

[9] = system: Staphylococcus aureus (ATCC#6538); assay: as above; details: S. aureus, ppm active ingredient; for MIC: Staphylococcus aureus, ATCC6538, read-out: Alone ppm (MIC of compound acting alone)
Source text: as §1, §2, §3, §4, §5, §8, §9, §10

Structure (SMILES): Cn1sccc1=O [MI, 2-methyl-4-isothiazolin-3-one]
- MIC ([1]; 72 h): 107 µg/mL
- MIC ([1]; 168 h): 133 µg/mL
- MIC ([2]; Candida albicans, ATCC10231, 168 h, read-out: Alone ppm (MIC of compound acting alone)): 25 µg/mL
- MIC ([3]; Aspergillus niger, ATCC16404, 168 h, read-out: Alone ppm (MIC of compound acting alone)): 200 µg/mL
- MIC ([4]; ATCC58929, 72 h): 200 µg/mL
- MIC ([4]; ATCC58929, 168 h): 200 µg/mL
- MIC ([5]; ATCC13583, 24 h): 25 µg/mL
- MIC ([6]; ATCC15442, 24 h): 20 µg/mL
- MIC ([6]; ATCC15442, 48 h): 25 µg/mL

Structure (SMILES): CCCCn1sc2ccccc2c1=O [n-BBIT, N-(n-butyl)-1,2-benzisothiazolin-3-one]
- Alone ppm (MIC of compound acting alone) ([1]; contact time 3 days): 711 ppm
- Alone ppm (MIC of compound acting alone) ([1]; contact time 7 days): >711 ppm
- Alone ppm (MIC of compound acting alone) ([2]; C. albicans, contact time 7 days, ppm active ingredient): 124 ppm
- Alone ppm (MIC of compound acting alone) ([3]; contact time 3 days): 28 ppm
- Alone ppm (MIC of compound acting alone) ([3]; contact time 7 days): 53 ppm
- Alone ppm (MIC of compound acting alone) ([4]; F. moniliforme, contact time 3 days, ppm active ingredient): 267 ppm and 444 ppm
- Alone ppm (MIC of compound acting alone) ([4]; F. moniliforme, contact time 7 days, ppm active ingredient): 533 ppm and 356 ppm and 267 ppm
- Alone ppm (MIC of compound acting alone) ([7]; contact time 24 hr): 356 ppm
- Alone ppm (MIC of compound acting alone) ([7]; contact time 48 hr): 533 ppm
- Alone ppm (MIC of compound acting alone) [8]: 18 ppm
- Alone ppm (MIC of compound acting alone) ([5]; K. pneumoniae, contact time 24 hr, ppm active ingredient): 267 ppm
- Alone ppm (MIC of compound acting alone) ([5]; K. pneumoniae, contact time 48 hr, ppm active ingredient): 267 ppm
- Alone ppm (MIC of compound acting alone) ([6]; contact time 24 hr): 711 ppm
- Alone ppm (MIC of compound acting alone) ([6]; contact time 48 hr): 711 ppm
- Alone ppm (MIC of compound acting alone) ([9]; contact time 24 hr): 36 ppm
- Alone ppm (MIC of compound acting alone) ([9]; contact time 48 hr): 53 ppm

- MIC ([4]; ATCC58929, 72 h, F. moniliforme, contact time 3 days, ppm active ingredient): 0.28 µg/mL
- MIC ([4]; ATCC58929, 168 h, F. moniliforme, contact time 7 days, ppm active ingredient): 1 µg/mL
- MIC ([8]; Proteus mirabilis, read-out: Alone ppm (MIC of compound acting alone)): 5 µg/mL
- MIC ([5]; ATCC13583, K. pneumoniae, contact time 48 hr, ppm active ingredient): 11 µg/mL
- MIC ([9]; contact time 24 hr): 6 µg/mL
- MIC ([9]; contact time 48 hr): 9 µg/mL
Structure (SMILES): CCCCCCCCn1sc(Cl)c(Cl)c1=O [DCOIT, 4,5-dichloro-2-n-octyl-4-isothiazolin-3-one]
